Reference: patent publication US7148380B2, “Bio-energy muscle relaxants” (priority 2000, dated 2006)

Tests used:
[1] = tested on: contraction of bronchial smooth muscle induced by histamine; assay: By-pass-airflow pressure, bronchial smooth muscle contraction induced by histamine; assay type: in vivo, guinea pig
Protocol: The animals were divided as saline, BDM, and aminophylline groups. Each animal was anesthetized with pentobarbital (30 mg/kg, I.P.), the trachea was intubated and connected to respirator. Tidal volume and frequency of the respirator were adjusted to 6˜10 ml and 60˜70 breath/min. respectively.
A small hole on chest wall of the animal was made, resulting in pneumothorax to inhibit spontaneous respiration of the animal. A modified device was used for measuring by-pass-airflow pressure of the airway, reflecting alteration in airway resistance, therefore evaluating status of bronchial smooth muscle contraction induced by histamine. The by-pass-airflow pressures were measured before and at 10, 20, 30, 40, 50, and 60 min after administration of histamine (5˜10 μg, I.P.) as control values. […] Changes in by-pass-airflow pressure caused by histamine before and after saline, BDM, or aminophylline were compared.
A percentage of changes in the airflow pressures before and after administration of the histamine at different time points, defined as the change rate, was calculated according to formula 1 below: Change rate (%)=(PA−PB)/PB×100% (1)
where PA is the airflow pressure after histamine, PB is the pressure before histamine. Values were expressed as mean±SD, paired or group “t” test was used upon the requirement for the statistical analysis. The results were considered significant when p<0.05.

[2] = tested on: hypertension induced by aramine; assay: Aramine-induced hypertension, curative test; assay type: in vivo, SD rats
Protocol: Eighteen (18) SD rats (provided by the Center of Experimental Animals, First Military Medical University, Guang Zhou, China, Certificate No. 99A046) with body weight of 200–250 g were used for the study. The animal was anesthetized with urethane (1.4 g/kg, I.P.), then the main cervical artery was exposed and cannulated, blood pressure was monitored during the experiment. After a 30-minute stabilization period after the operation, normal blood pressure curves were recorded.

[3] = after drug 10 ml/kg I.P., 10 min after histamine
[4] = after drug 10 ml/kg I.P., 20 min after histamine
[5] = after drug 10 ml/kg I.P., 30 min after histamine
[6] = after drug 10 ml/kg I.P., 40 min after histamine
[7] = after drug 10 ml/kg I.P., 50 min after histamine
[8] = after drug 10 ml/kg I.P., 60 min after histamine
[9] = before drug administration, 10 min after histamine
[10] = before drug administration, 20 min after histamine
[11] = before drug administration, 30 min after histamine
[12] = before drug administration, 40 min after histamine
[13] = before drug administration, 50 min after histamine
[14] = before drug administration, 60 min after histamine
[15] = BDM 0.2 M, 10 ml/kg, I.P. after aramine
[16] = control fluctuating within ±15 mmHg

## CC(=O)C(C)=NO [BDM, 2,3-butanedione monoxime]
[1]; after drug 10 ml/kg I.P. (BDM 0.2M, aminophylline 1.25%), before histamine
  by-pass-airflow pressure, A, B. Hist: 3.86 ± 0.23 Kpa
[1]; [3]
  by-pass-airflow pressure, A, Hist 10 min.: 3.42 ± 0.21 Kpa
  changing rate of by-pass-airflow pressure, A, Hist 10 min.: −11.37%
[1]; [4]
  by-pass-airflow pressure, A, Hist 20 min.: 3.54 ± 0.21 Kpa
  changing rate of by-pass-airflow pressure, A, Hist 20 min.: −8.22%
[1]; [5]
  by-pass-airflow pressure, A, Hist 30 min.: 3.56 ± 0.27 Kpa
  changing rate of by-pass-airflow pressure, A, Hist 30 min.: −7.80%
[1]; [6]
  by-pass-airflow pressure, A, Hist 40 min.: 3.60 ± 0.28 Kpa
  changing rate of by-pass-airflow pressure, A, Hist 40 min.: −6.77%
[1]; [7]
  by-pass-airflow pressure, A, Hist 50 min.: 3.62 ± 0.29 Kpa
  changing rate of by-pass-airflow pressure, A, Hist 50 min.: −6.25%
[1]; [8]
  by-pass-airflow pressure, A, Hist 60 min.: 3.66 ± 0.26 Kpa
  changing rate of by-pass-airflow pressure, A, Hist 60 min.: −5.11%
[1]; at 10, 20, 30, 40, and 50 min after administration, p<0.01 or p<0.05
  histamine-induced increase in the airflow pressure: significantly reduce
[1]; [9]
  by-pass-airflow pressure, B, Hist 10 min.: 3.67 ± 0.16 Kpa
  changing rate of by-pass-airflow pressure, B, Hist 10 min.: 2.13%
[1]; [10]
  by-pass-airflow pressure, B, Hist 20 min.: 3.76 ± 0.32 Kpa
  changing rate of by-pass-airflow pressure, B, Hist 20 min.: 4.49%
[1]; [11]
  by-pass-airflow pressure, B, Hist 30 min.: 3.72 ± 0.21 Kpa
  changing rate of by-pass-airflow pressure, B, Hist 30 min.: 3.52%
[1]; [12]
  by-pass-airflow pressure, B, Hist 40 min.: 3.72 ± 0.18 Kpa
  changing rate of by-pass-airflow pressure, B, Hist 40 min.: 3.56%
[1]; [13]
  by-pass-airflow pressure, B, Hist 50 min.: 3.67 ± 0.23 Kpa
  changing rate of by-pass-airflow pressure, B, Hist 50 min.: 2.06%
[1]; [14]
  by-pass-airflow pressure, B, Hist 60 min.: 3.68 ± 0.11 Kpa
  changing rate of by-pass-airflow pressure, B, Hist 60 min.: 2.54%
[1]; before drug administration, before histamine
  by-pass-airflow pressure, B, B. Hist: 3.60 ± 0.26 Kpa
[1]; difference A minus B, 10 min after histamine
  changing rate of by-pass-airflow pressure, D, Hist 10 min.: −13.50%
[1]; difference A minus B, 20 min after histamine
  changing rate of by-pass-airflow pressure, D, Hist 20 min.: −12.72%
[1]; difference A minus B, 30 min after histamine
  changing rate of by-pass-airflow pressure, D, Hist 30 min.: −11.33%
[1]; difference A minus B, 40 min after histamine
  changing rate of by-pass-airflow pressure, D, Hist 40 min.: −10.34%
[1]; difference A minus B, 50 min after histamine
  changing rate of by-pass-airflow pressure, D, Hist 50 min.: −8.31%
[1]; difference A minus B, 60 min after histamine
  changing rate of by-pass-airflow pressure, D, Hist 60 min.: −7.65%
[2]; [15]
  Diastolic pressure 2 min. after BDM administration: 73.8 ± 4.9^★★ mmHg
  Diastolic pressure 5 min. after BDM administration: 77.0 ± 9.1^★★ mmHg
  Diastolic pressure 10 min. after BDM administration: 76.3 ± 5.2^★★ mmHg
  Systolic pressure 2 min. after BDM administration: 123.7 ± 6.0^★★ mmHg
  Systolic pressure 5 min. after BDM administration: 128.3 ± 5.2^★★ mmHg
  Systolic pressure 10 min. after BDM administration: 130.5 ± 4.2^★★ mmHg
[2]; baseline, mean±SD, n=6–7
  Diastolic pressure, Blood Pressure before: 74.0 ± 15.4 mmHg
  Systolic pressure, Blood Pressure before: 123.3 ± 10.1 mmHg
[2]; before BDM
  Diastolic pressure 2 min. after aramin administration: 121.5 ± 5.5 mmHg
  Diastolic pressure 5 min. after aramin administration: 122.2 ± 5.1 mmHg
  Diastolic pressure 10 min. after aramin administration: 117.7 ± 9.5 mmHg
  Systolic pressure 2 min. after aramin administration: 182.7 ± 6.0 mmHg
  Systolic pressure 5 min. after aramin administration: 183.5 ± 5.5 mmHg
  Systolic pressure 10 min. after aramin administration: 181.8 ± 6.4 mmHg
[2]; [16]
  Average decrease of diastolic blood pressure after BDM administration: 42 mmHg
  Average decrease of systolic blood pressure after BDM administration: 54 mmHg
